Data: PubChem BioAssay (NCI)
Where “and” joins values, the source holds several entries; their conditions need not be identical. Equal values may be shown once.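 Values below derive from 48-hour exposures of cells grown in 96-well plates, with endpoints linearly interpolated between the two concentrations bracketing the appropriate inhibition level. GI50 marks 50% less growth. TGI is the concentration that stops growth completely.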

Key:
Test in all cases: DTP human tumour cell line panel, 48 h
CAKI-1 renal = tested on: CAKI-1 renal
EKVX NSCLC = tested on: EKVX NSCLC
LOX IMVI melanoma = tested on: LOX IMVI melanoma
MCF7 breast = tested on: MCF7 breast
OVCAR-8 ovarian = tested on: OVCAR-8 ovarian
SF-268 CNS = tested on: SF-268 CNS
SK-MEL-28 melanoma = tested on: SK-MEL-28 melanoma
SK-OV-3 ovarian = tested on: SK-OV-3 ovarian
TK-10 renal = tested on: TK-10 renal
UACC-62 melanoma = tested on: UACC-62 melanoma

| Structure (SMILES) | GI50 (CAKI-1 renal) [µM] | TGI (CAKI-1 renal) | GI50 (EKVX NSCLC) [µM] | TGI (EKVX NSCLC) | GI50 (LOX IMVI melanoma) [µM] | TGI (LOX IMVI melanoma) | GI50 (MCF7 breast) [µM] | TGI (MCF7 breast) | GI50 (OVCAR-8 ovarian) [µM] | TGI (OVCAR-8 ovarian) | GI50 (SF-268 CNS) [µM] | TGI (SF-268 CNS) | GI50 (SK-MEL-28 melanoma) [µM] | TGI (SK-MEL-28 melanoma) | GI50 (SK-OV-3 ovarian) [µM] | TGI (SK-OV-3 ovarian) | GI50 (TK-10 renal) [µM] | TGI (TK-10 renal) | GI50 (UACC-62 melanoma) [µM] | TGI (UACC-62 melanoma) |
| --- | --- | --- | --- | --- | --- | --- | --- | --- | --- | --- | --- | --- | --- | --- | --- | --- | --- | --- | --- | --- |
| COc1ccc2nc(C3=CN(C4OC(CO)C(O)C(O)C4O)C4C=CC=CC34)sc2c1 (stereo not drawn) | 40.7 | > 100 µM | 39.7 | > 100 µM | 19.4 | 56.6 µM | > 100 | > 100 µM | 25.2 | 77.8 µM | > 100 | > 100 µM | > 100 | > 100 µM | 96 | > 100 µM | 27.3 | 51.5 µM | 22.2 | 67.6 µM |
| O=C1c2c(O)cccc2C(C(=O)CCCC(=O)C2c3cccc(O)c3C(=O)c3c(O)cccc32)c2cccc(O)c21 | – | 4.45 µM | – | 2.35 µM | – | 1.8 µM | – | 25 µM | – | 2.77 µM | – | 3.39 µM | – | 4.53 µM | – | 1.05 µM | – | 1.67 µM | – | 2.04 µM |
| CCCCCCCCCCC(CN(CC)CC)C(O)c1ccccc1 (stereo not drawn) | 1.51 | 2.92 µM | 1.56 | 3.74 µM | 1.75 | 3.19 µM | 1.63 | 3.15 µM | 2.37 | 5.83 µM | 1.94 | 3.87 µM | 1.7 | 3.16 µM | 2.78 | 9.52 µM | 1.65 | 3.22 µM | 1.78 | 3.46 µM |
| COc1ccc(Cn2cc3c(c2-c2ccccc2)CCc2cncnc2-3)cc1 | 3.55 | 17.5 µM | 4.5 | 29.3 µM | 6.81 | 19.9 µM | 4.66 | 18.9 µM | 7.76 | 23.7 µM | 9.63 | 22.2 µM | 8.71 | 21.6 µM | 9.04 | 31.2 µM | 8.09 | 26.6 µM | 3.47 | 16.5 µM |
| O=C(Nn1c2c(sc1=NC1CC1)C(=O)c1ccccc1C2=O)c1cc2ccc1CCc1ccc(cc1)CC2 | 2.48 | 14.9 µM | 1.87 | 12.5 µM | 0.966 | 2.62 µM | 1.42 | 3.29 µM | 2.62 | 11.6 µM | 2.54 | 11 µM | 2.4 | 5.22 µM | 7.03 | 21.4 µM | 18.4 | 34.7 µM | 1.62 | 3.52 µM |
| C=CC1=C(C)C(Cc2[nH]c(/C=c3\[nH]/c(=C/C4=NC(=O)C(C)/C4=C\C)c(C)c3CCC(=O)O)c(CCC(=O)OC)c2C)NC1=O (stereo not drawn) | 46.3 | > 100 µM | 47.7 | > 100 µM | 18.6 | 37.4 µM | 26.7 | > 100 µM | 34.9 | > 100 µM | 21.2 | 59.5 µM | 14.8 | 31.9 µM | 27.9 | 78.2 µM | 46.4 | > 100 µM | 18.7 | 35.9 µM |
| O=C(Nc1ccc([N+](=O)[O-])cc1)c1cc2ccccc2cc1O | 0.26 | 0.955 µM | 0.322 | 3 µM | 0.405 | – | 1.32 | 11.3 µM | 0.425 | 12.6 µM | 0.515 | 15.2 µM | 0.448 | > 36.5 µM | 0.384 | 15.7 µM | 0.402 | 6.82 µM | 0.336 | 1.45 µM |
| CN1CCN(c2ccc([N+](=O)[O-])c3no[n+]([O-])c23)CC1 | 0.137 | 1.6 µM and 0.92 µM | – | 2.83 µM and 2.92 µM | 0.157 | 1.14 µM and 0.612 µM | 0.141 | 1.79 µM and 0.985 µM | 0.145 | 1.75 µM and 0.34 µM | 0.198 | 0.68 µM and 1.12 µM | 0.991 | 5.59 µM and 2.67 µM | 0.87 | 1.73 µM and 2.12 µM | 0.454 | 2.33 µM and 1.49 µM | 0.471 | 2.64 µM and 1.84 µM |
| CC(C)c1ccc(O)c(O)c(=O)c1 (tested in a mixture with another compound) | – | > 52.2 µM | – | 47.7 µM | – | 27.2 µM | – | > 100 µM | – | > 100 µM | – | > 61.5 µM | – | 23.8 µM | – | > 100 µM | – | 9.6 µM | – | 12.1 µM |
| Cc1cccc2cc3ccc4ccccc4c3cc12 | – | > 100 µM | – | 78.3 µM | – | > 100 µM | – | 98 µM | – | > 100 µM | – | > 100 µM | – | > 100 µM | – | > 100 µM | – | > 100 µM | – | > 100 µM |
| CCOC(=O)c1cn2ncnc(Oc3ccc(NC(=O)NCCN(CC)CC)c(Cl)c3)c2c1C | 1.9 | 3.82 µM | 3.79 | 21.5 µM | 1.85 | 3.55 µM | 2.14 | 5.21 µM | 5.66 | > 100 µM | 2.28 | 6.58 µM | 1.69 | 3.15 µM | 20.7 | 50.2 µM | 2.91 | 11.1 µM | 1.95 | 3.72 µM |
